In experiment [1] the target is TRPM8 protein domain (Homo sapiens, UniProt Q7Z2W7). Put plainly: Activation of TRPM8 by menthol (shift of activation curve). It counts as biochemical. The following applies: FIG. 5. The text has this: FIG. 3 illustrates the regulation of the ion channel via cold temperature change to an open channel within the protein membrane. The TRPM8 protein domain is weakly voltage-dependant and polymodal in that it can be activated with more than one agonist.

Experiment [2] relates to human bladder cancer cell lines. As to conditions: cited from earlier work.

Chain of TRPM8 protein domain (Q7Z2W7 whole entry, the tested form may be a part): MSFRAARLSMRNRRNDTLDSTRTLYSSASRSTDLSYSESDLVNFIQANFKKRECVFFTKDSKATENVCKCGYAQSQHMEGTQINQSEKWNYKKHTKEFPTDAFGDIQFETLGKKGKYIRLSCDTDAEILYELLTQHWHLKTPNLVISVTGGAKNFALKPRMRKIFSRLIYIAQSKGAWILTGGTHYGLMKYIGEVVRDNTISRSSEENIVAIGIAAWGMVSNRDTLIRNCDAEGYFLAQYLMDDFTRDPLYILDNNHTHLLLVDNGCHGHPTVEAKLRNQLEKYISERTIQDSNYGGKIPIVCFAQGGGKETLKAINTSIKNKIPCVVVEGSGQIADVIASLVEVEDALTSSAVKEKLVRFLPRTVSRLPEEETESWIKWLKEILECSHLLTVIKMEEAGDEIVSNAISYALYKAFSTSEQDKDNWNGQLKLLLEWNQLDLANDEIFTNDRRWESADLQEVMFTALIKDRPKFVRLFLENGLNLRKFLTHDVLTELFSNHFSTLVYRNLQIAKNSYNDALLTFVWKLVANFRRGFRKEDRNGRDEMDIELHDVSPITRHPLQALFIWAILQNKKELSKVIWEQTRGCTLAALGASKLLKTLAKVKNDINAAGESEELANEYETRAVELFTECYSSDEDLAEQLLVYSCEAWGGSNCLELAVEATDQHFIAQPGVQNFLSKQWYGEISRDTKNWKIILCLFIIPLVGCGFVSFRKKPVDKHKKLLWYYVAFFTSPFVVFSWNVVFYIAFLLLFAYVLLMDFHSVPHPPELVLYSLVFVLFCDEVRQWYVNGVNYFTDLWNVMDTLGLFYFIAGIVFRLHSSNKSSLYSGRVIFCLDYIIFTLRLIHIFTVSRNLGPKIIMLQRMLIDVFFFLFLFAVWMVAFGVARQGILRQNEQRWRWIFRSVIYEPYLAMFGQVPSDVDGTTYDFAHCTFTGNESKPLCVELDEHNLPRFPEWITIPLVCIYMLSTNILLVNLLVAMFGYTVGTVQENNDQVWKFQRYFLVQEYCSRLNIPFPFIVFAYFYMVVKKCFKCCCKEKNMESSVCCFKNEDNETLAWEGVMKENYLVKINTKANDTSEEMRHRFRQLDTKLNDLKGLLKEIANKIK

`CC1CCC(C(C)C)C(O)C1` (centres unmarked) [menthol]: in experiment [1], the “activation of the TRPM8 protein domain” value was “activates the TRPM8 protein domain by shifting the activation curve”. Also, the cell death entry in experiment [2] was “induces cell death in human bladder cancer cell lines”.
